Test system: SCC4, HSC3, Cal27 OSCC cell lines
Assay: MTT assay, human OSCC cell lines
Assay type: cell-based
Details: 8 h and 24 h treatments, read-out: IC50 (cell growth)
Description: SCC4 and Cal27 oral cancer cells are obtained from ATCC and maintained in DMEM supplemented with 10% fetal bovine serum and 1% penicillin/streptomycin at 37° C. with 5% CO2. For the SCC4 cells, hydrocortisone was provided at 400 ng/ml in the completed media. […] Doses to be tested will bracket the IC50s for each cell line. Control cells will receive DMSO. […] Subsequently, 10 μl of 12 mM MTT (Life Technologies; Carlsbad, Calif.) solution was added to each well, incubated for 4 hr at 37° C., and neutralized with DMSO. Absorbance was measured at 540 nm and percent viability was calculated.

`Cc1ccc(-c2cc(C(F)(F)F)nn2-c2ccc(S(N)(=O)=O)cc2)cc1` [Celecoxib] showed an IC50 of 75 µM.

Reference: patent US20210315960A1, “COMPOSITIONS OF AZADIRACHTA INDICA AND METHODS OF TREATING CANCER” (Board of Regents, The University of Texas System, priority 2018, published 2021)
